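Growth conditions: 96-well plates. Treatment: test compound, 48 hours, 5 concentrations. Analysis: linear interpolation between bracketing concentrations; unreached endpoints set to highest concentration. Definition used: TGI = concentration required for complete inhibition of growth.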 Where a SMILES comes first, the peptide text is derived from it. [ ]: non-standard residue; d: D form. The star is where a group is joined. ξ: configuration not given here. Propanoyl(3-(4-MeO-Ph)) = COc1ccc(CCC(=O)*)cc1; Thr(3ξ) = CC(O)[C@H](N)C(=O)O; dNMeL = CN[C@H](CC(C)C)C(=O)O; ξLac = CC(O)C(=O)O
How the values were obtained:
Assay in all cases: NCI tumour cell line growth inhibition, 48 h
SF-295 CNS = tested on: SF-295 CNS
CAKI-1 renal = tested on: CAKI-1 renal
PC-3 prostate = tested on: PC-3 prostate
UACC-257 melanoma = tested on: UACC-257 melanoma
MDA-N = tested on: MDA-N
LOX IMVI melanoma = tested on: LOX IMVI melanoma
SNB-19 CNS = tested on: SNB-19 CNS
OVCAR-3 ovarian = tested on: OVCAR-3 ovarian

With `CCCCCCCCCCCCCCCCCCOc1ccc(/C=C/C2=[N+](CCCl)CCO2)cc1` the TGI (SF-295 CNS) was greater than 100 µM, the TGI (CAKI-1 renal) was greater than 100 µM and the TGI (PC-3 prostate) was greater than 100 µM. It also gave a TGI (UACC-257 melanoma) greater than 100 µM, a TGI (MDA-N) greater than 100 µM and a TGI (LOX IMVI melanoma) greater than 100 µM. The TGI (SNB-19 CNS) was greater than 100 µM and the TGI (OVCAR-3 ovarian) was greater than 100 µM.

In the case of `CC(=O)NC(C)c1ccc(N=NN2CCCC2)cc1` (configuration not stated), the TGI (SF-295 CNS) is reported as greater than 100 µM, the TGI (CAKI-1 renal) is reported as greater than 100 µM and the TGI (PC-3 prostate) is reported as greater than 100 µM. It also gave a TGI (UACC-257 melanoma) greater than 100 µM, a TGI (MDA-N) greater than 100 µM and a TGI (LOX IMVI melanoma) greater than 100 µM. It also gave a TGI (SNB-19 CNS) greater than 100 µM and a TGI (OVCAR-3 ovarian) greater than 100 µM.

Molecule `CSC1(SC)N2Cc3ccccc3N=C2C1(c1ccccc1)c1ccccc1` has a TGI (SF-295 CNS) greater than 100 µM, a TGI (CAKI-1 renal) greater than 100 µM and a TGI (PC-3 prostate) greater than 100 µM. For the same molecule, the TGI (UACC-257 melanoma) was greater than 90.2 µM, the TGI (MDA-N) was greater than 96.7 µM and the TGI (LOX IMVI melanoma) was 44.4 µM. It also gave a TGI (SNB-19 CNS) greater than 100 µM and a TGI (OVCAR-3 ovarian) of 28.3 µM.

`CN(C)CCCNc1cnc2cc3ccccc3cc2n1` showed a TGI (SF-295 CNS) of 52.4 µM, a TGI (CAKI-1 renal) of 74.4 µM and a TGI (PC-3 prostate) of 45.6 µM. The TGI (UACC-257 melanoma) was 42.5 µM, the TGI (MDA-N) was greater than 100 µM and the TGI (LOX IMVI melanoma) was 35.7 µM. It also gave a TGI (SNB-19 CNS) greater than 100 µM and a TGI (OVCAR-3 ovarian) greater than 100 µM.

In the case of `COC(=O)[C@@H](NC(=O)[C@@H](CC(C)C)N(C)C(=O)[C@@H]1CCCN1C(=O)C(C)O)C(C)OC(=O)CCc1ccc(OC)cc1` (some centres not stated) (H-[ξLac]P[dNMeL][Thr(3ξ)](Propanoyl(3-(4-MeO-Ph)))-OMe), the TGI (SF-295 CNS) is reported as greater than 100 µM, the TGI (CAKI-1 renal) is reported as greater than 100 µM and the TGI (PC-3 prostate) is reported as greater than 100 µM. For the same molecule, the TGI (UACC-257 melanoma) was greater than 100 µM, the TGI (MDA-N) was greater than 100 µM and the TGI (LOX IMVI melanoma) was greater than 100 µM. The TGI (SNB-19 CNS) was greater than 100 µM and the TGI (OVCAR-3 ovarian) was greater than 100 µM.

`COC12OC3CC4(C)C(=CC3OC(OC(C)C1O)C2O)CCC1C4CCC2(C)C(c3ccc(=O)oc3)CCC12O` (configuration not stated) gave a TGI (SF-295 CNS) of 0.447 µM, a TGI (CAKI-1 renal) of 0.00849 µM and a TGI (PC-3 prostate) of 0.00214 µM. It also gave a TGI (UACC-257 melanoma) of 0.0117 µM, a TGI (MDA-N) of 0.00434 µM and a TGI (LOX IMVI melanoma) of 0.00281 µM. It also gave a TGI (SNB-19 CNS) of 0.00455 µM and a TGI (OVCAR-3 ovarian) of 0.00639 µM.

For `CNC(=O)c1ccccc1[S+]1c2cccc3cccc(c23)C(=O)N1C` (configuration not stated), the TGI (SF-295 CNS) was greater than 100 µM, the TGI (CAKI-1 renal) was greater than 100 µM and the TGI (PC-3 prostate) was greater than 100 µM. The TGI (UACC-257 melanoma) was greater than 100 µM, the TGI (MDA-N) was greater than 100 µM and the TGI (LOX IMVI melanoma) was greater than 100 µM. It also gave a TGI (SNB-19 CNS) greater than 100 µM and a TGI (OVCAR-3 ovarian) greater than 100 µM.

With `COc1cccc2c1-c1c(OC)cccc1SS2` the TGI (SF-295 CNS) was 43.6 µM, the TGI (CAKI-1 renal) was greater than 100 µM and the TGI (PC-3 prostate) was greater than 100 µM. It also gave a TGI (UACC-257 melanoma) of 35.9 µM, a TGI (MDA-N) of 8.15 µM and a TGI (LOX IMVI melanoma) of 23.5 µM. It also gave a TGI (SNB-19 CNS) of 76.7 µM and a TGI (OVCAR-3 ovarian) of 48.7 µM.

With `COC(=O)C(Cc1ccccc1)NC(=O)c1ccc(CNC(=S)NCc2cccc(CNC(=S)NCc3ccccc3)c2)cc1` (configuration not stated) the TGI (SF-295 CNS) was greater than 62.5 µM, the TGI (CAKI-1 renal) was greater than 62.5 µM and the TGI (PC-3 prostate) was greater than 62.5 µM. The TGI (UACC-257 melanoma) was greater than 62.5 µM, the TGI (MDA-N) was greater than 62.5 µM and the TGI (LOX IMVI melanoma) was greater than 62.5 µM. For the same molecule, the TGI (SNB-19 CNS) was greater than 62.5 µM and the TGI (OVCAR-3 ovarian) was greater than 62.5 µM.

With `CCCCCC(O)(CCCCC)CCCCCCCCC1=C(O)c2ccccc2C(=O)C1=O` the TGI (SF-295 CNS) was 40.5 µM, the TGI (CAKI-1 renal) was greater than 56.1 µM and the TGI (PC-3 prostate) was 24.6 µM. For the same molecule, the TGI (UACC-257 melanoma) was greater than 66.5 µM, the TGI (MDA-N) was 31.3 µM and the TGI (LOX IMVI melanoma) was 18 µM. The TGI (SNB-19 CNS) was 24.9 µM and the TGI (OVCAR-3 ovarian) was 29.4 µM.

`C=CCCC(On1c(-c2ccc(Cl)cc2)csc1=S)c1ccccc1` (configuration not stated) was tested, and the TGI (SF-295 CNS) was greater than 100 µM, the TGI (CAKI-1 renal) was greater than 100 µM and the TGI (PC-3 prostate) was greater than 100 µM. For the same molecule, the TGI (UACC-257 melanoma) was greater than 100 µM, the TGI (MDA-N) was 13.4 µM and the TGI (LOX IMVI melanoma) was greater than 100 µM. It also gave a TGI (SNB-19 CNS) greater than 100 µM and a TGI (OVCAR-3 ovarian) greater than 100 µM.

For `O=c1oc2c/c(=C\c3ccccc3)c(=O)c3cccc1c3-2`, the TGI (SF-295 CNS) was greater than 100 µM, the TGI (CAKI-1 renal) was 55.8 µM and the TGI (PC-3 prostate) was greater than 100 µM. For the same molecule, the TGI (UACC-257 melanoma) was greater than 100 µM, the TGI (MDA-N) was 46.1 µM and the TGI (LOX IMVI melanoma) was 40.7 µM. For the same molecule, the TGI (SNB-19 CNS) was 67.9 µM and the TGI (OVCAR-3 ovarian) was 63 µM.

For `CNc1ncnc2c1nnn2C`, the TGI (SF-295 CNS) was greater than 100 µM, the TGI (CAKI-1 renal) was greater than 100 µM and the TGI (PC-3 prostate) was greater than 100 µM. For the same molecule, the TGI (UACC-257 melanoma) was greater than 100 µM, the TGI (MDA-N) was greater than 100 µM and the TGI (LOX IMVI melanoma) was greater than 100 µM. The TGI (SNB-19 CNS) was greater than 100 µM and the TGI (OVCAR-3 ovarian) was greater than 100 µM.

With `O=C(Cn1c(=O)oc2ccc(C(=O)c3ccccc3Cl)cc21)c1ccc([N+](=O)[O-])cc1` the TGI (SF-295 CNS) was 81.7 µM, the TGI (CAKI-1 renal) was greater than 100 µM and the TGI (PC-3 prostate) was greater than 100 µM. The TGI (UACC-257 melanoma) was 90.3 µM, the TGI (MDA-N) was 39.1 µM and the TGI (LOX IMVI melanoma) was 30.9 µM. The TGI (SNB-19 CNS) was greater than 100 µM and the TGI (OVCAR-3 ovarian) was 59.4 µM.

With `COc1ccc(N2C(N)=C(C#N)C(C#N)(C#N)C2c2cccc([N+](=O)[O-])c2)cc1` (configuration not stated) the TGI (SF-295 CNS) was 39.5 µM, the TGI (CAKI-1 renal) was 23.4 µM and the TGI (PC-3 prostate) was 32.4 µM. The TGI (UACC-257 melanoma) was 27.6 µM, the TGI (MDA-N) was 31.5 µM and the TGI (LOX IMVI melanoma) was 27.6 µM. The TGI (SNB-19 CNS) was 32.5 µM and the TGI (OVCAR-3 ovarian) was 30.1 µM.

With `N#CCSc1c(-c2ccccc2)c(=O)n(-c2ccccc2)c(=S)n1-c1ccccc1` the TGI (SF-295 CNS) was greater than 100 µM, the TGI (CAKI-1 renal) was greater than 100 µM and the TGI (PC-3 prostate) was greater than 100 µM. It also gave a TGI (UACC-257 melanoma) greater than 100 µM, a TGI (MDA-N) greater than 100 µM and a TGI (LOX IMVI melanoma) greater than 100 µM. The TGI (SNB-19 CNS) was greater than 100 µM and the TGI (OVCAR-3 ovarian) was greater than 100 µM.

Molecule `NNC(=O)CCC(NS(=O)(=O)c1ccc(Cl)cc1)C(=O)NN` (configuration not stated) has a TGI (SF-295 CNS) greater than 100 µM, a TGI (CAKI-1 renal) greater than 100 µM and a TGI (PC-3 prostate) greater than 100 µM. For the same molecule, the TGI (UACC-257 melanoma) was greater than 100 µM, the TGI (MDA-N) was greater than 100 µM and the TGI (LOX IMVI melanoma) was greater than 100 µM. It also gave a TGI (SNB-19 CNS) greater than 100 µM and a TGI (OVCAR-3 ovarian) greater than 100 µM.

`NC(=O)C[C@H](NC(=O)C1(NC(=O)[C@H](Cc2ccc(CP(=O)(O)O)cc2)NC(=O)C(=O)O)CCCCC1)C(=O)NCCCc1cccc2ccccc12` showed a TGI (SF-295 CNS) greater than 10 µM, a TGI (CAKI-1 renal) greater than 10 µM and a TGI (PC-3 prostate) greater than 10 µM. It also gave a TGI (UACC-257 melanoma) greater than 10 µM, a TGI (MDA-N) greater than 10 µM and a TGI (LOX IMVI melanoma) greater than 10 µM. It also gave a TGI (SNB-19 CNS) greater than 10 µM and a TGI (OVCAR-3 ovarian) greater than 10 µM.

`CC(C)(C)OC(=O)N1Cc2cc(O)ccc2C[C@H]1C(=O)O` showed a TGI (SF-295 CNS) greater than 100 µM, a TGI (CAKI-1 renal) greater than 100 µM and a TGI (PC-3 prostate) greater than 100 µM. For the same molecule, the TGI (UACC-257 melanoma) was greater than 100 µM, the TGI (MDA-N) was greater than 100 µM and the TGI (LOX IMVI melanoma) was greater than 100 µM. It also gave a TGI (SNB-19 CNS) greater than 100 µM and a TGI (OVCAR-3 ovarian) greater than 100 µM.

Source: PubChem BioAssay (NCI)
